Source: patent US11065252B2, “Treatment of rosacea with P38 and Erk kinase pathway inhibitors” (Albany Medical College, priority 2016, dated 2021)

Assays:
[1] = system: subjects with acute coronary syndrome; conditions: phase III trial; cited from earlier work
Balb/c mice = assay: Skin safety of daily topical cream on shaved backs of mice; assay type: in vivo
Source text: Wild type Balb/c mice of 6-8 weeks of age were used to determine the safety and efficacy of application of a cream containing an inhibitor of the Erk pathway. Animal studies were approved by the Albany Medical Center Institutional Review Board. The fur of the back was removed with an application of Nair. Three days later, three marks were made on the backs of the mice and treated with a cream containing trametinib (an Erk pathway inhibitor), vehicle cream (without an active ingredient) or nothing daily for five days. One hour after the last application, the spots were treated with one cream or the other, and cutaneous inflammation was induced via exposure to 1-Fluoro-2,4-dinitrobenzene (hereafter DNFB). Six hours later mice were euthanized and the skin spots were processed for histological analysis.
More specifically, to determine whether a cream containing an inhibitor of the Erk activation pathway would effectively penetrate the skin and protect it from an external injury, four mice were treated once a day for five consecutive days on a shaved back with a cream containing 0.1 mg/ml trametinib and cream without drug as described in FIG. 4. Regions labeled ‘U’ were left untreated and represent the baseline normal skin. […] Regions labeled ‘T’ were treated with a cream containing trametinib as the active ingredient. […]

Row | SMILES | Efficacy in reducing the incidence of cardiovascular events [1] | Safety profile in trial [1] | Skin changes after application of cream (photographs) (Balb/c mice; cream containing 0.1 mg/ml trametinib, topical, once a day for five days, shaved back) | Acute adverse effect in the skin (Balb/c mice; topical cream containing trametinib, five days)
1 | Cc1c(F)cc(C(=O)NC2CC2)cc1-c1ccc(C(=O)NCC(C)(C)C)cn1 [Losmapimod] | did not demonstrate efficacy | good safety profile |  | 
2 | CC(=O)Nc1cccc(-n2c(=O)n(C3CC3)c(=O)c3c(Nc4ccc(I)cc4F)n(C)c(=O)c(C)c32)c1 [trametinib, Trametinib] |  |  | No skin changes | does not elicit an acute adverse effect
